The target of test [1] is T1, Rac-1 (Homo sapiens, UniProt P63000).
T1 construct: made in house
Description: Ras GTP Binding Domain Inhibition Assay (Ras Superfamily Assay). The conditions noted are these: read-out: Rac-1: % inh. The essentials:
(§1)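 Binding of 100 nM fluorescent GTP (Cy3 or Cy5, 45 min, room temperature) was read after washes from plate-captured His-tagged protein. Beforehand, compounds at 20 μM or in dilution series for IC50 sat 3 h on the protein in Tris buffer pH 7.4 or 7.0 with 1% DMSO, Sos GEF optionally added for the last hour.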

Test [2] relates to KRas G12D mutant. The test is described as above. The conditions noted are these: for KRas G12D mutant + SOS: % inh.: with SOS; for KRas G12D mutant: % inh.: without SOS. The essentials: as §1
The subject of test [3] is KRas wild type. The description is as above. The conditions noted are these: for KRas wild type + SOS: % inh.: with SOS; for KRas wild type: % inh.: without SOS. The essentials: as §1
Test [4] relates to Smad2/Smad3 phosphorylation. Description: Phospho-Smad2/3 Inhibition Assay (western blot), Panc-1. In kind it is cell-based, human. The conditions noted are these: at 10 μM, Panc-1 pancreatic cancer cell line; starred symbols = activation. The method in brief:
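Panc-1 cells (KRas G12D), starved overnight in 0.5% FBS, treated 3 h at 37° C with compound at 10 μM final (0.3% DMSO) or serial dilutions for IC50, then stimulated with 10 ng/ml TGF-b1 for 1 h. Phospho-Smad2 (Ser465/467) and phospho-Smad3 (Ser423/425) detected by western blot.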
For orientation: In western blotting, separated proteins are transferred to a membrane and probed.

Test [5] concerns IL6. Put plainly: IL-6 Quantification Assay (ELISA), LPS-stimulated RAW 264.7. In kind it is cell-based. Details: inhibition: dose or concentration left out as unconfirmed. The conditions noted are these: Mus musculus, RAW264.7; read-out: IL-6: % inh.

Take `COc1ccnc(Nc2nc(-c3nccn3C)nn3cc(-c4ccn(C)n4)c(C(=O)N4CCCC4)c23)c1` [Compound 178, (4-((4-Methoxypyridin-2-yl)amino)-2-(1-methyl-1H-imidazol-2-yl)-6-(1-methyl-1H-pyrazol-3-yl)pyrrolo[2,1-f][1,2,4]triazin-5-yl)(pyrrolidin-1-yl)methanone]: the inhibition at 20 µM in test [1] fell in the range of 76 to 100%. Besides, in test [2] (20 μM compound), the “KRas G12D mutant + SOS: % inh.” value is “D (D = 76-100% inhibition)” and the “KRas G12D mutant: % inh.” value is listed as “D (D = 76-100% inhibition)”. Also, in test [3] (20 μM compound), the “KRas wild type + SOS: % inh.” value was “D (D = 76-100% inhibition)” and the “KRas wild type: % inh.” value is recorded as “D (D = 76-100% inhibition)”. For the same compound, the “% inh of Smad2/3 phosphorylation in Panc-1” value (from here on “% inh … in Panc-1”) in test [4] is “B* (B* = 26-45% activation)”. The inhibition in test [5] lay within 50 to 74%.

As to `COc1ccnc(Nc2nc(-c3nccn3C)nn3cc(-c4ccn(C)n4)c(C(=O)NC4CC4)c23)c1` [Compound 175, N-Cyclopropyl-4-((4-methoxypyridin-2-yl)amino)-2-(1-methyl-1H-imidazol-2-yl)-6-(1-methyl-1H-pyrazol-3-yl)pyrrolo[2,1-f][1,2,4]triazine-5-carboxamide], the inhibition at 20 µM in test [1] lay in the range of 26 to 49%. Further, in test [2] (20 μM compound), the “KRas G12D mutant + SOS: % inh.” value is reported as “D (D = 76-100% inhibition)” and the “KRas G12D mutant: % inh.” value is reported as “C (C = 50-75% inhibition)”. Also, in test [3] (20 μM compound), the “KRas wild type + SOS: % inh.” value is on record as “D (D = 76-100% inhibition)” and the “KRas wild type: % inh.” value is recorded as “D (D = 76-100% inhibition)”. The “% inh … in Panc-1” value in test [4] is listed as “B* (B* = 26-45% activation)”. For the same compound, in test [5], the inhibition is 75 to 100%.

As to `CO[C@H]1C[C@H](Nc2nc(-c3nccn3C)nn3cc(-c4cccc(CN)c4)c(-c4ccccc4)c23)C1` [Compound 204, 6-(3-(aminomethyl)phenyl)-N-((1r,3r)-3-methoxycyclobutyl)-2-(1-methyl-1H-imidazol-2-yl)-5-phenylpyrrolo[2,1-f][1,2,4]triazin-4-amine], the inhibition at 20 µM in test [1] fell in the range of 1 to 25%. In addition, in test [2] (at 20 μM), the “KRas G12D mutant + SOS: % inh.” value was “A (A = 1-25% inhibition)” and the “KRas G12D mutant: % inh.” value was “A (A = 1-25% inhibition)”. For the same compound, in test [3] (at 20 μM), the “KRas wild type + SOS: % inh.” value is “A (A = 1-25% inhibition)” and the “KRas wild type: % inh.” value is “A (A = 1-25% inhibition)”. The “% inh … in Panc-1” value in test [4] was “A (A = 1-25% inhibition)”. The inhibition in test [5] fell in the range of 75 to 100%.

For the compound `CO[C@H]1C[C@@H](Nc2nc(-c3nccn3C)nn3cc(-c4ccncc4)c(-c4ccccc4)c23)C1` [Compound 198, N-((1s,3s)-3-Methoxycyclobutyl)-2-(1-methyl-1H-imidazol-2-yl)-5-phenyl-6-(pyridin-4-yl)pyrrolo[2,1-f][1,2,4]triazin-4-amine], the inhibition at 20 µM in test [1] is 26 to 49%. In addition, in test [2] (at 20 μM), the “KRas G12D mutant + SOS: % inh.” value is reported as “B (B = 26-49% inhibition)” and the “KRas G12D mutant: % inh.” value is listed as “B (B = 26-49% inhibition)”. For the same compound, in test [3] (at 20 μM), the “KRas wild type + SOS: % inh.” value is reported as “B (B = 26-49% inhibition)” and the “KRas wild type: % inh.” value is listed as “A (A = 1-25% inhibition)”. For the same compound, the “% inh … in Panc-1” value in test [4] was “A (A = 1-25% inhibition)”. Also, in test [5], the inhibition fell in the range of 25 to 49%.

As to `Cc1c(-c2ccn(C)n2)cn2nc(-c3nccn3C)nc(Nc3ccc(-n4ccnc4C)cn3)c12` [Compound 243, 5-Methyl-N-(5-(2-methyl-1H-imidazol-1-yl)pyridin-2-yl)-2-(1-methyl-1H-imidazol-2-yl)-6-(1-methyl-1H-pyrazol-3-yl)pyrrolo[2,1-f][1,2,4]triazin-4-amine], the inhibition at 20 µM in test [1] is 76 to 100%. In test [2] (at 20 μM), the “KRas G12D mutant + SOS: % inh.” value is on record as “D (D = 76-100% inhibition)” and the “KRas G12D mutant: % inh.” value is “D (D = 76-100% inhibition)”. Besides, in test [3] (at 20 μM), the “KRas wild type + SOS: % inh.” value is listed as “D (D = 76-100% inhibition)” and the “KRas wild type: % inh.” value is given as “D (D = 76-100% inhibition)”. Moreover, the “% inh … in Panc-1” value in test [4] is “A* (A* = 1-25% activation)”. The inhibition in test [5] was found to be 0%.
